These results are taken from patent US9695174B2, “Inhibitor of breast cancer resistance protein (BCRP)” (Millennium Pharmaceuticals, Inc., priority 2013, dated 2017).

pIC50: −log10 of the molar value. Read-outs that look alike come from different tables or passages of the source.

One data set concerns the target BCRP efflux transporter (Homo sapiens (Human), UniProt Q9UNQ0). The experiment in a line: Bi-directional transport study in Caco-2 cells, inhibition of BCRP efflux of 3H-estrone-3-sulfate. On the procedure: To determine potency of compounds on inhibition of transporters, bi-directional transport studies are performed in Caco-2 cells (American Type Culture Collection, Manassas, Va.) at 37° C. in air, according toXia et al. (Expression, localization and functional characteristics of breast cancer resistance protein in Caco-2 cells. Drug Met. Disp., 33 (5): 637-643 (2005)). Prior to each experiment, the confluent cell monolayers on Transwell™ inserts are washed and equilibrated for 30 minutes with transport media (Hank's balanced salt solution (HBSS) containing 10 mM of N-2-hydroxyethyl-piperazine-N′-2-ethanesulfonic acid (HEPES) and 10 mM of glucose, pH 7.4). […] At preset time points, 0.05 mL aliquot of receiving solutions are sampled from the basolateral side (for A-to-B transport) or from the apical side (for B-to-A transport), and replaced immediately with an equal amount of fresh transport media except at the last time point (the end of the incubation). The radioactivity in each sample is measured by 1450 MicroBeta TriLux, a microplate scintillation and luminescence counter (PerkinElmer Life Sciences). Radioactivity (^3H) of the dosing solution is measured and used to calculate the initial donor concentration of the substrate.
(Caco-2 cells form a polarised layer with tight junctions and transporters.)

A further data set addresses P-gp transporter (Homo sapiens (Human), UniProt P08183). The experiment in a line: Bi-directional transport study in Caco-2 cells, inhibition of P-gp efflux of 3H-digoxin. The class given is cell-based.
For another data set, the target named is CYP1A2 (Homo sapiens (Human), UniProt P05177). The experiment in a line: CYP inhibition in human liver microsomes (phenacetin). The class given is in vitro ADME. The following applies: read-out: CYP inhibition IC50 1A2. On the procedure:
(§1) Reactions are initiated by the addition of β-NADPH (2 mM) and MgCl2 (3 mM) in 0.1-M potassium phosphate buffer, pH 7.4. Reactions are incubated for 12 minutes at 37° C., and then terminated by the addition of an equal volume of ACN containing 1-μM carbutamide (IS). The plates are refrigerated at approximately 4° C. for 15 minutes and then centrifuged in order to pellet the precipitated proteins. The supernatants are analyzed by LC/MS/MS for the amount of metabolite formed by each CYP isozyme.

Another data set has as its target CYP2D6 (Homo sapiens (Human), UniProt P10635). The experiment in a line: CYP inhibition in human liver microsomes (dextromethorphan). The following applies: read-out: CYP inhibition IC50 2D6. It counts as in vitro ADME. The procedure:
as §1
A general note: Liver microsomes are a subcellular fraction often used to study metabolism.

In another data set the target is CYP2C8 (Homo sapiens (Human), UniProt P10632). The experiment in a line: CYP inhibition in human liver microsomes (amodiaquine). The class given is in vitro ADME. The conditions noted are these: read-out: CYP inhibition IC50 2C8. The procedure:
as §1

The next data set addresses CYP2C9 (Homo sapiens (Human), UniProt P11712). The experiment in a line: CYP inhibition in human liver microsomes (diclofenac). It counts as in vitro ADME. The following applies: read-out: CYP inhibition IC50 2C9. On the procedure:
as §1

A short description of data set [1]: In vivo pharmacokinetic profile in Sprague-Dawley rats. On the procedure: Approximately 200 μL of whole blood is collected from the jugular vein catheter of each animal into tubes containing the anticoagulant dipotassium ethylenediaminetetraacetic acid (K2EDTA) and is further processed into plasma at approximately 4° C. […] Pharmacokinetic analysis of the individual plasma concentration data is performed using a nonvalidated program (Phoenix™ WinNonlin®, Version 6.1 [Pharsight Corp (Mountain View, Calif., USA)]).

In the next data set the test system is CYP3A4/5. Kind of data set: CYP inhibition in human liver microsomes (midazolam). The class given is in vitro ADME. The conditions noted are these: midazolam substrate, read-out: CYP inhibition IC50 3A-M. On the procedure:
as §1

For the next data set, the target named is CYP2C19 (Homo sapiens (Human), UniProt P33261). Kind of data set: CYP inhibition in human liver microsomes (S-mephenytoin). The class given is in vitro ADME. The conditions noted are these: read-out: CYP inhibition IC50 2C19. On the procedure: as §1
Sequence of CYP2C19 (P33261 whole entry): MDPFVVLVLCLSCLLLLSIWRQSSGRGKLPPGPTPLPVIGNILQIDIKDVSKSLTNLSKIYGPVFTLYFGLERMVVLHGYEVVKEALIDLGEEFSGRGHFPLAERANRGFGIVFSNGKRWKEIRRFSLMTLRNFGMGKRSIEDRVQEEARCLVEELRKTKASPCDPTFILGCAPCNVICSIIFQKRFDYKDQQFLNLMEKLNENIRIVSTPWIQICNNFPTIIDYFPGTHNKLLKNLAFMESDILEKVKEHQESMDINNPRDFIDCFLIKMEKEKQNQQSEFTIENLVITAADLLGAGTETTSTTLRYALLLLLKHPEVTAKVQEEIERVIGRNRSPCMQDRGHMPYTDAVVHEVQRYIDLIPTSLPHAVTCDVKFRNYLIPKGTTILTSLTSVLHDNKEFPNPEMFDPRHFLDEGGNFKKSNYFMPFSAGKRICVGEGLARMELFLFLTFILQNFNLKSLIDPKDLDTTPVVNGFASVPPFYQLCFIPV
[2] abbreviates: read-out: IC50 on BCRP efflux transporter, Caco-2 cells, substrate 3H-Estrone-3-sulfate (26 nM).
Where [3] appears, read: Sprague-Dawley, rat, plasma, IV-JVC, 2 mg/kg.
Setting [4] is: Sprague-Dawley, rat, plasma, PO-JVC, 20 mg/kg.

Sequence of BCRP efflux transporter (Q9UNQ0 whole entry): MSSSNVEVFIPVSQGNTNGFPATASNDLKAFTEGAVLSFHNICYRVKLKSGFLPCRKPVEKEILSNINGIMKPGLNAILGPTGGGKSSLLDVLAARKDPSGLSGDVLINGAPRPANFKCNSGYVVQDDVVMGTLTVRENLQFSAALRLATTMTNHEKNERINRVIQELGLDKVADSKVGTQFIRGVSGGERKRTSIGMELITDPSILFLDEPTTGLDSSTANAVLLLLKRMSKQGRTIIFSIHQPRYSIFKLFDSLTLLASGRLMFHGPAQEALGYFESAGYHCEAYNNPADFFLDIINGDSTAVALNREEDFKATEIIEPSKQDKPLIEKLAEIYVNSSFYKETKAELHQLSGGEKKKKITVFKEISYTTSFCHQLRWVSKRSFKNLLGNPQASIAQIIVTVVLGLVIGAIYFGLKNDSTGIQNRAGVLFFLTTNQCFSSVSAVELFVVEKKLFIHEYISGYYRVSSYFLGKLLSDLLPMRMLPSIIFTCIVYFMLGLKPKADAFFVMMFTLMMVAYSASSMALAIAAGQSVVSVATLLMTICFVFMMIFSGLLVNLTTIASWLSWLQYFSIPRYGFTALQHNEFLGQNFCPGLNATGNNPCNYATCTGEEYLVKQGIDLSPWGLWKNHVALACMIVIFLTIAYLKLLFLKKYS
Sequence of P-gp transporter (P08183 whole entry): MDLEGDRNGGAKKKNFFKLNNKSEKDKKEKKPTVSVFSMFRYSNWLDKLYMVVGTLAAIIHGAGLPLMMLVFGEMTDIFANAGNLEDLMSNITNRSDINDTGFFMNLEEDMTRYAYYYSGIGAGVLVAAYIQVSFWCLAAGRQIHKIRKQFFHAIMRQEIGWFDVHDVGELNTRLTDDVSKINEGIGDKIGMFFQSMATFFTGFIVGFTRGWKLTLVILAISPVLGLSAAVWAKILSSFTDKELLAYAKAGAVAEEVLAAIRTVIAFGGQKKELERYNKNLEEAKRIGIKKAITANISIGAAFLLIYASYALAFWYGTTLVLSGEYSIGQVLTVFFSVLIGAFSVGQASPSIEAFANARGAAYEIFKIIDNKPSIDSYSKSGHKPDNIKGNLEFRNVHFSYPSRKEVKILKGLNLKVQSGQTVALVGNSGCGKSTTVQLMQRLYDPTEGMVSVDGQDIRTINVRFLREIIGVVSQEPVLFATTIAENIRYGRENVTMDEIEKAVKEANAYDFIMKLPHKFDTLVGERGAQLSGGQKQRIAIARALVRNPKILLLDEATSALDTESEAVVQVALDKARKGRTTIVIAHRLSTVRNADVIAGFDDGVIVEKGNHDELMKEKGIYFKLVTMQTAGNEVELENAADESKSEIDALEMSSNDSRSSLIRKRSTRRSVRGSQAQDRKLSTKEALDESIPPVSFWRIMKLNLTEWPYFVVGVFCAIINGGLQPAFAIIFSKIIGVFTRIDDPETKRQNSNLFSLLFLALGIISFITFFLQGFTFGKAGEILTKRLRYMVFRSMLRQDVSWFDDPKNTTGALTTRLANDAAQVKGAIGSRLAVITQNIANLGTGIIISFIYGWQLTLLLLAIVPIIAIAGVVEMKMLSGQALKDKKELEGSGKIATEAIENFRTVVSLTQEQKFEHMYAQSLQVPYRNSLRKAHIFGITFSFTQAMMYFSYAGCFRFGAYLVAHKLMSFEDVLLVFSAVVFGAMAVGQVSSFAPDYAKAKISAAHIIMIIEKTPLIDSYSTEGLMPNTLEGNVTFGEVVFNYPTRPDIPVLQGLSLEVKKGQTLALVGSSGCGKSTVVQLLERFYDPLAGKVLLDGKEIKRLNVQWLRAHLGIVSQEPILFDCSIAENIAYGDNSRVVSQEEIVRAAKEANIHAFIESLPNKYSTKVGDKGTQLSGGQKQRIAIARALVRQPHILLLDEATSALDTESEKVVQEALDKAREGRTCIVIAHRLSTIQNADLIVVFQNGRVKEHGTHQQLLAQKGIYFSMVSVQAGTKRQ
Sequence of CYP2C8 (P10632 whole entry): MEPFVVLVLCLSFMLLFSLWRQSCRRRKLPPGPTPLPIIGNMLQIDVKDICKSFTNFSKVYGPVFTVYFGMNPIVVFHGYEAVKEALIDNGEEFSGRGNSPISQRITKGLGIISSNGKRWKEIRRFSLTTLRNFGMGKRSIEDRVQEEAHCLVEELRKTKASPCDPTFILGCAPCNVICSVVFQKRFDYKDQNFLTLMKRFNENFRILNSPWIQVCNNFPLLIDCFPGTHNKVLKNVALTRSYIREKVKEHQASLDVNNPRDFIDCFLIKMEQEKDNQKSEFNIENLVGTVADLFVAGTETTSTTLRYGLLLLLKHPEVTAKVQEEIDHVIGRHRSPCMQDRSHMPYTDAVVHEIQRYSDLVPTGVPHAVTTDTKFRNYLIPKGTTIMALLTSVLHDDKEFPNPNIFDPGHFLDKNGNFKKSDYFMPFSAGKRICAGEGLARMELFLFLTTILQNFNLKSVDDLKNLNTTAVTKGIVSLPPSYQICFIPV
Sequence of CYP2C9 (P11712 whole entry): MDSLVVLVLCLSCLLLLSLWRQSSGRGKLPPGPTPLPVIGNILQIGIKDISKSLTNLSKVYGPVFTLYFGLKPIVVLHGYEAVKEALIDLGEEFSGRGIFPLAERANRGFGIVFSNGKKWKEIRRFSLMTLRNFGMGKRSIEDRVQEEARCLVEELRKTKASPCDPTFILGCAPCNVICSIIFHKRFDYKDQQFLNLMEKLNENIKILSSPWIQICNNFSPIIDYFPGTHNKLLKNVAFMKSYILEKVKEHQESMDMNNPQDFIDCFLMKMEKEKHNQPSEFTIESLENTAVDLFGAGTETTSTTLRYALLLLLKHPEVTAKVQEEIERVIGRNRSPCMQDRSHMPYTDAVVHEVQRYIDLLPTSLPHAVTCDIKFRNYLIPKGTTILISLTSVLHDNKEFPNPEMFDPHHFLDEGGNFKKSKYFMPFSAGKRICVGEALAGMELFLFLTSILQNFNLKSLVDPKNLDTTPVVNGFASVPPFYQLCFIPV
Sequence of CYP1A2 (P05177 whole entry): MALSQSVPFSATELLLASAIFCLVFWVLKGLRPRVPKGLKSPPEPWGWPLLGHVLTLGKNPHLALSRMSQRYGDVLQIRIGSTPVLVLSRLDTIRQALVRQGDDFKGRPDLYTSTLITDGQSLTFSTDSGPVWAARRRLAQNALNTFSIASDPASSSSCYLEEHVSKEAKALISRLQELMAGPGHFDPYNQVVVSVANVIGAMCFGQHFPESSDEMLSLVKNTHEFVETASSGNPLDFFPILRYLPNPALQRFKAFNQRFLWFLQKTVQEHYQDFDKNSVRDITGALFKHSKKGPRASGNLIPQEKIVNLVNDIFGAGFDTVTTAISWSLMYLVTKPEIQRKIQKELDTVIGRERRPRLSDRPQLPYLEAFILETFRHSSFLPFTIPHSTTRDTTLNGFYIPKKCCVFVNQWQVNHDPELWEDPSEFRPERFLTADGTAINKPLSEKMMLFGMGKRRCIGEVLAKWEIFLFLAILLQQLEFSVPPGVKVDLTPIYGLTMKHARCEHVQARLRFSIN
Sequence of CYP2D6 (P10635 whole entry): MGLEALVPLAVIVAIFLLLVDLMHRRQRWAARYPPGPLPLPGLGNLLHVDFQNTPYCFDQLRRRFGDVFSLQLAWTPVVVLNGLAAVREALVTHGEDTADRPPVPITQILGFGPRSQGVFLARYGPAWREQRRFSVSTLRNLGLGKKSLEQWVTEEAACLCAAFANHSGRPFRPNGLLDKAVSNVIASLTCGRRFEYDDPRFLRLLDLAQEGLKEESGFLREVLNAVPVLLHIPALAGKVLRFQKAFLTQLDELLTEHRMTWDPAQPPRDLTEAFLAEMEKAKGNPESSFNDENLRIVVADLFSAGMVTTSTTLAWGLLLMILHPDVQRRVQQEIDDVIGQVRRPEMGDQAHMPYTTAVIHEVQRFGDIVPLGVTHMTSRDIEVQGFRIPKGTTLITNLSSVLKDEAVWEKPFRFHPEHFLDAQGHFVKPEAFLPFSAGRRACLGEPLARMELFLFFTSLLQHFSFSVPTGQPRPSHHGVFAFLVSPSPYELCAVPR

Regarding `COc1cc2[nH]c3c(c2cc1OC)C[C@@H]1C(=O)N[C@@H](C)C(=O)N1[C@H]3CC(C)C` [Compound 8A, (3S,6S,12aR)-6-isobutyl-9,10-dimethoxy-3-methyl-2,3,6,7,12,12a-hexahydropyrazino[1′,2′:1,6]pyrido[3,4-b]indole-1,4-dione], at BCRP efflux transporter, the pIC50 (as a rule, the IC50 on a negative log10 scale, so that one unit is a factor of ten) was under 5.00.
Compound `CC(C)C[C@H]1c2[nH]c3ccccc3c2C[C@H]2C(=O)N[C@@H](CCC(=O)OC(C)(C)C)C(=O)N21` [Ko134, reference compound] had a pIC50 on BCRP efflux transporter of 5.49.
As to `COc1ccc2c3c([nH]c2c1)[C@H](CC(C)C)N1C(=O)[C@H](C)NC(=O)[C@H]1C3` [Compound 4, (3S,6S,12aR)-6-isobutyl-9-methoxy-3-methyl-2,3,6,7,12,12a-hexahydropyrazino[1′,2′:1,6]pyrido[3,4-b]indole-1,4-dione], the negative-log IC50 (pIC50) at BCRP efflux transporter (setting [2]) was under 5.00.
Take `COc1ccc2c3c([nH]c2c1)[C@H](CC(C)C)N1C(=O)[C@H](C)NC(=O)[C@@H]1C3` [Compound (I-1), (3S,6S,12aS)-6-isobutyl-9-methoxy-3-methyl-2,3,6,7,12,12a-hexahydropyrazino[1′,2′:1,6]pyrido[3,4-b]indole-1,4-dione]: the pIC50 against P-gp transporter (Caco-2 cells, substrate 3H-digoxin) was under 4.52; at CYP1A2, 4.81; on CYP2D6, under 4.52; at CYP2C8, under 4.52; on CYP2C9, under 4.52; on BCRP efflux transporter (setting [2]) it was 6.22. Besides, the pIC50 at CYP2C19 was 4.73. For the same compound, the “Selectivity for BCRP over P-gp” value on P-gp transporter (conclusion from Table 2) is recorded as “selective BCRP inhibitor”. In addition, the “Bioavailability (in words)” value in data set [1] is given as “high bioavailability”. Further, the “Clearance (in words)” value in data set [1] is listed as “low clearance”. In data set [1] (IV-JVC, 2 mg/kg), this compound returned a CL of 25.7 mL/min/kg. For the same compound, the Vss (as a rule, a proportionality between amount in the body and measured concentration, not a real space) in data set [1] (IV-JVC, 2 mg/kg) is 1.64 L/kg. The Tmax (usually the time at which the peak concentration occurs) in data set [1] (PO-JVC, 20 mg/kg) was found to be 1.3 h. For the same compound, the area under the curve (AUC) (usually concentration integrated over time) was found to be 4 µM·h in [1] (setting [3]) and 49 µM·h in data set [1] (setting [4]). The values for the half-life in data set [1] (setting [3]) and in [1] (setting [4]) were 0.9 h and 2 h, respectively. Moreover, in data set [1] (setting [4]), the Cmax – broadly, the highest concentration seen after dosing – was 10.1 µM. Further, the bioavailability in data set [1] (setting [4]) was 123%. For the same compound, in the data set with CYP3A4/5 (pH 7.4, probe midazolam), the half-inhibitory concentration (IC50) (in general, the concentration that gives 50% inhibition) at 12 min was over 30 µM.
Take `COc1ccc2c3c([nH]c2c1)[C@H](CC(C)C)N1C(=O)[C@H](CCC(=O)OC(C)(C)C)NC(=O)[C@@H]1C3` [Ko143, reference compound]: the pIC50 on CYP1A2 was 4.76. For the same compound, the negative logarithm of the IC50 (pIC50) on CYP2D6 was under 4.52. The pIC50 at CYP2C8 was under 4.52. Further, the pIC50 at CYP2C9 was 5.22. Also, in [1] (IV-JVC, 2 mg/kg), the AUC0-24 hr stood at 0.0856 µM·h, the CL came to 1100 mL/min/kg, the T1/2 is 0.2 h and the Vss came to 14.8 L/kg. Further, in [1] (PO-JVC, 50 mg/kg), the AUC0-24 hr was found to be 0.0722 µM·h, the Cmax came out at 0.0214 µM, the F % worked out at 3% and the Tmax worked out at 2 h. In addition, the pIC50 with CYP3A4/5 is under 4.52. For the same compound, at CYP2C19, the pIC50 is 4.83.
As for `COc1cc2[nH]c3c(c2cc1OC)C[C@H]1C(=O)N[C@@H](C)C(=O)N1[C@H]3CC(C)C` [Compound 8, (3S,6S,12aS)-6-isobutyl-9,10-dimethoxy-3-methyl-2,3,6,7,12,12a-hexahydropyrazino[1′,2′:1,6]pyrido[3,4-b]indole-1,4-dione], the negative-log IC50 (pIC50) on BCRP efflux transporter (setting [2]) was under 5.00.
The same measure, in the same setting: the figure for `COc1cc2[nH]c3c(c2cc1C)C[C@H]1C(=O)N[C@@H](C)C(=O)N1[C@H]3CC(C)C` [Compound 12, (3S,6S,12aS)-6-isobutyl-9-methoxy-3,10-dimethyl-2,3,6,7,12,12a-hexahydropyrazino[1′,2′:1,6]pyrido[3,4-b]indole-1,4-dione] is 5.70; for `COc1cc2[nH]c3c(c2cc1C)C[C@@H]1C(=O)N[C@@H](C)C(=O)N1[C@H]3CC(C)C` [Compound 12A, (3S,6S,12aR)-6-isobutyl-9-methoxy-3,10-dimethyl-2,3,6,7,12,12a-hexahydropyrazino[1′,2′:1,6]pyrido[3,4-b]indole-1,4-dione] it is under 5.00.
